Test results reported in US11447460B2, “Compounds and compositions for treating conditions associated with NLRP activity” (Novartis AG, priority 2016, dated 2022).

tested on: IL-1β production in PMA-differentiated THP-1 cells; assay: IL-1β production in PMA-differentiated THP-1 cells stimulated with gramicidin (hTHP-1 assay, 2% bovine serum; Bioassays 1 and 2); assay type: cell-based, human; conditions: Homo sapiens, THP-1; hTHP-1 assay containing 2% bovine serum; Table 12, by Example #; read-out: Average IC50 of compounds in hTHP-1 assay
Description: IL-1β Production in PMA-Differentiated THP-1 Cells Stimulated with Gramicidin.
Cell culture-THP-1 cells were purchased from the American Type Culture Collection and sub-cultured according to instructions from the supplier. Prior to experiments, cells were cultured in RPMI 1640 containing 10% heat inactivated FBS, penicillin (100 units/ml) and streptomycin (100 μg/ml), and maintained in log phase prior to experimental setup. Prior to the experiment THP-1 were treated with PMA (Phorbol 12-myristate 13-acetate) (10 μg/ml) for 24 hours. The day of the experiment the media was removed and attaching cells were treated with trypsin for 2 minutes, cells were then collected, washed with PBS (phosphate buffer saline), spin down, resuspended in 2% heat inactivated FBS with RPMI at a concentration of 1×10^6 cells/ml, and 100 ul was plated in a 96 well plate. Cells were incubated with compounds for 1 hours and then stimulated with Gramicidin (5 μM) (Enzo) for 2 hours. Cell free supernatant was collected and the production of IL-1β was evaluated by ELISA. Compounds were dissolved in dimethyl sulfoxide (DMSO) and added to the culture medium to achieve desired concentration (e.g. 100, 30, 10, 3, 1, 0.3 or 0.1 μM). A vehicle only control was run concurrently with each experiment. Final DMSO concentration was 1%.
THP-1 cells were purchased from the American Type Culture Collection and sub-cultured according to instructions from the supplier. Prior to experiments, cells were cultured in complete RPMI 1640 (containing 10% heat inactivated FBS, penicillin (100 units/ml) and streptomycin (100 μg/ml)), and maintained in log phase prior to experimental setup. Prior to the experiment THP-1 were treated with PMA (Phorbol 12-myristate 13-acetate) (20 ng/ml) for 16-18 hours. On the day of the experiment the media was removed and adherent cells were detached with trypsin for 5 minutes. Cells were then harvested, washed with complete RPMI 1640, spun down, resuspended in RPMI 1640 (containing 2% heat inactivated FBS, penicillin (100 units/ml) and streptomycin (100 μg/ml). The cells were plated in a 384-well plate at a density of 50,000 cells/well (final assay volume 50 μl). Compounds were dissolved in dimethyl sulfoxide (DMSO) and added to the culture medium to achieve desired concentration (e.g. 100, 33, 11, 3.7, 1.2, 0.41, 0.14, 0.046, 0.015, 0.0051, 0.0017 μM). Cells were incubated with compounds for 1 hour and then stimulated with gramicidin (5 μM) (Enzo) for 2 hours. Cell free supernatant was collected and the production of IL-10 was evaluated by HTRF (cisbio). A vehicle only control was run concurrently with each experiment. Final DMSO concentration was 0.38%.
Compounds tested with protocols 1 and 2 provided IC50 values that are within the variability of the assay.
Tables 12 and 13 show the biological activity of compounds in hTHP-1 assay containing 2% bovine serum: <1 μM=“++++”; ≥1 and <5 μM=“+++”; ≥5 and <15 μM=“++”; ≥15 and <60 μM=“+”.

IC50 [µM]	SMILES
15 to 60	CC(C)c1cc(F)cc(C(C)C)c1CC(=O)NS(=O)(=O)c1cccc(S(C)(=O)=O)c1 [Example 59, 2-(4-fluoro-2,6-diisopropylphenyl)-N-(3-(methylsulfonyl)phenylsulfonyl)acetamide]
5 to 15	CC(C)c1cc(C#N)cc(C(C)C)c1CC(=O)NS(=O)(=O)c1cc(-c2ccccc2)cc(C(C)(C)O)c1 [Example 33, 2-(4-cyano-2,6-diisopropylphenyl)-N-(5-(2-hydroxypropan-2-yl)biphenyl-3-ylsulfonyl)acetamide]
5 to 15	CC(C)c1cc(F)cc(C(C)C)c1CC(=O)NS(=O)(=O)c1cc(-c2ccccc2)cc(C(C)(C)O)c1 [Example 32, 2-(4-fluoro-2,6-diisopropylphenyl)-N-(5-(2-hydroxypropan-2-yl)biphenyl-3-ylsulfonyl)acetamide]
1 to 5	CC(C)c1cc(F)cc(C(C)C)c1CC(=O)NS(=O)(=O)c1ccc(S(C)(=O)=O)cc1 [Example 58, 2-(4-fluoro-2,6-diisopropylphenyl)-N-(4-(methylsulfonyl)phenylsulfonyl)acetamide]
5 to 15	CC(C)c1cc(F)cc(C(C)C)c1CC(=O)NS(=O)(=O)c1cc(F)cc(C(C)(C)O)c1 [Example 51, 2-(4-fluoro-2,6-diisopropylphenyl)-N-(3-fluoro-5-(2-hydroxypropan-2-yl)phenylsulfonyl)acetamide]
1 to 5	CC(C)c1cc(C#N)cc(C(C)C)c1CC(=O)NS(=O)(=O)c1cc(Cl)cc(C(C)(C)O)c1 [Example 28, N-(3-chloro-5-(2-hydroxypropan-2-yl)phenylsulfonyl)-2-(4-cyano-2,6-diisopropylphenyl)acetamide]
1 to 5	Cc1cc(C(C)(C)O)cc(S(=O)(=O)NC(=O)Cc2c(C(C)C)cc(F)cc2C(C)C)c1 [Example 46, 2-(4-fluoro-2,6-diisopropylphenyl)-N-(3-(2-hydroxypropan-2-yl)-5-methylphenylsulfonyl)acetamide]
5 to 15	CCc1cc(F)cc(CC)c1CC(=O)NS(=O)(=O)c1ncc(C(C)(C)O)s1 [Example 86, 2-(2,6-diethyl-4-fluorophenyl)-N-(5-(2-hydroxypropan-2-yl)thiazol-2-ylsulfonyl)acetamide]
15 to 60	CC(C)(O)c1cnc(S(=O)(=O)NC(=O)Cc2cc(C(F)(F)F)ccc2Cl)s1 [Example 87, 2-(2-chloro-5-(trifluoromethyl)phenyl)-N-(5-(2-hydroxypropan-2-yl)thiazol-2-ylsulfonyl)acetamide]
< 1	CC(C)c1cc(F)cc(C(C)C)c1CC(=O)NS(=O)(=O)c1cnc(C(C)(C)O)s1 [Example 75, 2-(4-fluoro-2,6-diisopropylphenyl)-N-(2-(2-hydroxypropan-2-yl)thiazol-5-ylsulfonyl)acetamide]
15 to 60	CC(C)c1cc(F)cc(C(C)C)c1CC(=O)NS(=O)(=O)c1cc(-c2ccncc2)cc(C(C)(C)O)c1 [Example 29, 2-(4-fluoro-2,6-diisopropylphenyl)-N-(3-(2-hydroxypropan-2-yl)-5-(pyridin-4-yl)phenylsulfonyl)acetamide]

Second part, the compound before the results:

SMILES	IC50 [µM]
Cc1sc(S(=O)(=O)NC(=O)Cc2c(C(C)C)cc(F)cc2C(C)C)cc1C(C)(C)O [Example 17, 2-(4-fluoro-2,6-diisopropylphenyl)-N-(4-(2-hydroxypropan-2-yl)-5-methylthiophen-2-ylsulfonyl)acetamide]	1 to 5
CC(C)c1cc(F)cc(C(C)C)c1CC(=O)NS(=O)(=O)c1ncc(C(C)CO)s1 (stereo not drawn) [Example 96, 2-(4-Fluoro-2,6-diisopropylphenyl)-N-(5-(1-hydroxypropan-2-yl)thiazol-2-ylsulfonyl)acetamide]	5 to 15
CC(C)c1cccc(C(C)C)c1CC(=O)NS(=O)(=O)c1cc(C(C)(C)O)cs1 [Example 8, 2-(2,6-diisopropylphenyl)-N-(4-(2-hydroxypropan-2-yl)thiophen-2-ylsulfonyl)acetamide]	< 1
CC(C)c1cccc(C(C)C)c1CC(=O)NS(=O)(=O)c1cc(C(C)(C)O)cc(C(C)(C)O)c1 [Example 24, N-(3,5-bis(2-hydroxypropan-2-yl)phenylsulfonyl)-2-(2,6-diisopropylphenyl)acetamide]	15 to 60
CC(C)c1cc(F)cc(C(C)C)c1CC(=O)NS(=O)(=O)c1cnc2ccccc2c1 [Example 40, 2-(4-fluoro-2,6-diisopropylphenyl)-N-(quinolin-3-ylsulfonyl)acetamide]	15 to 60
COC(C)(C)c1cnc(S(=O)(=O)NC(=O)Cc2c(C(C)C)cc(C#N)cc2C(C)C)s1 [Example 74, 2-(4-cyano-2,6-diisopropylphenyl)-N-(5-(2-methoxypropan-2-yl)thiazol-2-ylsulfonyl)acetamide]	5 to 15
CC(C)c1cc(F)cc(C(C)C)c1CC(=O)NS(=O)(=O)c1ccc(C(C)(C)O)s1 [Example 13, 2-(4-fluoro-2,6-diisopropylphenyl)-N-(5-(2-hydroxypropan-2-yl)thiophen-2-ylsulfonyl)acetamide]	1 to 5
CC(C)c1cc(F)cc(C(C)C)c1CC(=O)NS(=O)(=O)c1cc(C(C)(C)O)n(-c2ccccc2)n1 [Example 64, 2-(4-fluoro-2,6-diisopropylphenyl)-N-(5-(2-hydroxypropan-2-yl)-1-phenyl-1H-pyrazol-3-ylsulfonyl)acetamide]	1 to 5
CC(C)c1cccc(C(C)C)c1CC(=O)NS(=O)(=O)c1ncc(C(C)(C)O)s1 [Example 2, 2-(2,6-Diisopropylphenyl)-N-(5-(2-hydroxypropan-2-yl)thiazol-2-ylsulfonyl)acetamide]	1 to 5
CC(C)c1c(F)cc(F)c(C(C)C)c1CC(=O)NS(=O)(=O)c1ncc(C(C)(C)O)s1 [Example 77, 2-(3,5-difluoro-2,6-diisopropylphenyl)-N-(5-(2-hydroxypropan-2-yl)thiazol-2-ylsulfonyl)acetamide]	1 to 5
CC(C)c1cc(F)cc(C(C)C)c1CC(=O)NS(=O)(=O)c1ncc(C(C)(C)O)s1 [Example 89, 2-(4-Fluoro-2,6-diisopropylphenyl)-N-(5-(2-hydroxypropan-2-yl)thiazol-2-ylsulfonyl)acetamide]	1 to 5
Cc1c(C(C)(C)O)csc1S(=O)(=O)NC(=O)Cc1c(C(C)C)cc(F)cc1C(C)C [Example 19, 2-(4-fluoro-2,6-diisopropylphenyl)-N-(4-(2-hydroxypropan-2-yl)-3-methylthiophen-2-ylsulfonyl)acetamide]	1 to 5
CC(C)c1ccc(F)c(C(C)C)c1CC(=O)NS(=O)(=O)c1cc(C(C)(C)O)cs1 [Example 11, 2-(3-fluoro-2,6-diisopropylphenyl)-N-(4-(2-hydroxypropan-2-yl)thiophen-2-ylsulfonyl)acetamide]	< 1
CC(C)(O)c1coc(S(=O)(=O)NC(=O)Cc2c3c(cc4c2CCC4)CCC3)c1 [Example 1, 2-(1,2,3,5,6,7-Hexahydros-indacen-4-yl)-N-(4-(2-hydroxypropan-2-yl)furan-2-ylsulfonyl)acetamide]	5 to 15
CC(C)c1ccc(F)c(C(C)C)c1CC(=O)NS(=O)(=O)c1cccc(C(C)(C)O)c1 [Example 42, 2-(3-fluoro-2,6-diisopropylphenyl)-N-(3-(2-hydroxypropan-2-yl)phenylsulfonyl)acetamide]	5 to 15
CC(C)c1cc(F)cc(C(C)C)c1CC(=O)NS(=O)(=O)c1cccc(C(C)(C)O)c1F [Example 50, 2-(4-fluoro-2,6-diisopropylphenyl)-N-(2-fluoro-3-(2-hydroxypropan-2-yl)phenylsulfonyl)acetamide]	1 to 5
CC(C)c1cc(F)cc(C(C)C)c1CC(=O)NS(=O)(=O)c1cc(N2CCOCC2)cc(C(C)(C)O)c1 [Example 38, 2-(4-fluoro-2,6-diisopropylphenyl)-N-(3-(2-hydroxypropan-2-yl)-5-morpholinophenylsulfonyl)acetamide]	5 to 15
Cc1ccc(S(=O)(=O)NC(=O)Cc2c(C(C)C)cc(F)cc2C(C)C)cc1C(C)(C)O [Example 45, 2-(4-fluoro-2,6-diisopropylphenyl)-N-(3-(2-hydroxypropan-2-yl)-4-methylphenylsulfonyl)acetamide]	1 to 5

same assay, conditions: hTHP-1 assay containing 2% bovine serum; Table 12, by Example #; read-out: Average IC50 of compounds in hTHP-1 assay

IC50 [µM]	SMILES
1 to 5	CC(=O)c1ccc(F)c(S(=O)(=O)NC(=O)Cc2c(C(C)C)cc(F)cc2C(C)C)c1 [Example 55]
